In patent US8952024B2, “Herbicidal pyrimidone derivatives” (E I du Pont de Nemours and Company, priority 2009, dated 2015):

Key:
Assay type in all cases: in vivo
corn (Zea mays) = test: Test A pre-/postemergence plant response
Description: (§1) Seeds of barnyardgrass (Echinochloa crus-galli), large crabgrass (Digitaria sanguinalis), giant foxtail (Setaria faberii), morningglory (Ipomoea spp.), pigweed (Amaranthus retroflexus), velvetleaf (Abutilon theophrasti), wheat (Triticum aestivum) and corn (Zea mays) were planted into a blend of loam soil and sand and treated preemergence with a directed soil spray using test chemicals formulated in a non-phytotoxic solvent mixture which included a surfactant. At the same time these species were also treated with postemergence applications of test compounds formulated in the same manner.
(§2) Plants ranged in height from two to ten cm and were in the one- to two-leaf stage for the postemergence treatment. Treated plants and untreated controls were maintained in a greenhouse for approximately ten days, after which time all treated plants were compared to untreated controls and visually evaluated for injury. Plant response ratings, summarized in Table A, are based on a 0 to 100 scale where 0 is no effect and 100 is complete control. A dash (-) response means no test result.

[1] = system: large crabgrass (Digitaria sanguinalis); test: Test A pre-/postemergence plant response
Description: as §1, §2

[2] = system: giant foxtail (Setaria faberii); test: Test A pre-/postemergence plant response
Description: as §1, §2

[3] = system: wheat (Triticum aestivum); test: Test A pre-/postemergence plant response
Description: as §1, §2

[4] = system: velvetleaf (Abutilon theophrasti); test: Test A pre-/postemergence plant response
Description: as §1, §2

[5] = system: pigweed (Amaranthus retroflexus); test: Test A pre-/postemergence plant response
Description: as §1, §2

[6] = system: barnyardgrass (Echinochloa crus-galli); test: Test A pre-/postemergence plant response
Description: as §1, §2

[7] = system: morningglory (Ipomoea spp.); test: Test A pre-/postemergence plant response
Description: as §1, §2

[8] = system: ducksalad (Heteranthera limosa); test: Test B flooded paddy test; settings: for Plant response rating, Flood, Ducksalad: 250 g ai/ha, flooded paddy test, visual rating on 0 to 100 scale (0 no effect, 100 complete control) after 13 to 15 days; for Plant response rating, Ducksalad: Flood (flooded paddy test), 13 to 15 days
Method in brief: (§3)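 Plants were grown to the 2-leaf stage, then pots were flooded to 3 cm above the soil and compounds were applied directly into the paddy water. That depth was held throughout. After 13 to 15 days in a greenhouse, injury was visually rated against controls on a 0–100 scale.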

[9] = system: umbrella sedge (Cyperus difformis); test: Test B flooded paddy test; settings: for Plant response rating, Flood, Sedge, Umbrella: 250 g ai/ha, flooded paddy test, visual rating on 0 to 100 scale (0 no effect, 100 complete control) after 13 to 15 days; for Plant response rating, Sedge, Umbrella: Flood (flooded paddy test), 13 to 15 days
Method in brief: as §3

rice (Oryza sativa) = test: Test B flooded paddy test; settings: for Plant response rating, Flood, Rice: 250 g ai/ha, flooded paddy test, visual rating on 0 to 100 scale (0 no effect, 100 complete control) after 13 to 15 days; for Plant response rating, Rice: Flood (flooded paddy test), 13 to 15 days
Method in brief: as §3

[10] = system: barnyardgrass (Echinochloa crus-galli); test: Test B flooded paddy test; settings: for Plant response rating, Flood, Barnyardgrass: 250 g ai/ha, flooded paddy test, visual rating on 0 to 100 scale (0 no effect, 100 complete control) after 13 to 15 days; for Plant response rating, Barnyardgrass: Flood (flooded paddy test), 13 to 15 days
Method in brief: as §3

[11] = Postemergence, 125 g ai/ha, 0 to 100 scale where 0 is no effect and 100 is complete control
[12] = Postemergence, 500 g ai/ha, 0 to 100 scale, 0 = no effect, 100 = complete control, approx. ten days
[13] = Preemergence, 125 g ai/ha, 0 to 100 scale, 0 = no effect, 100 = complete control
[14] = Preemergence, 500 g ai/ha, visual injury, 0 to 100 scale (0 no effect, 100 complete control), approx. ten days
[15] = 62 g ai/ha, scale of 0 to 100 where 0 is no effect and 100 is complete control
[16] = 125 g ai/ha, scale 0 to 100, 0 is no effect, 100 is complete control
[17] = Flood, 31 g ai/ha, scale 0 to 100 (0 no effect, 100 complete control)

CCCn1c(-c2ccccc2F)ncc(C(=O)C2=C(O)CCCC2=O)c1=O [Compound 101]
Plant response rating, Corn (corn (Zea mays); [11]): 0
Plant response rating, Corn (corn (Zea mays); [12]): 10
Plant response rating, Corn (corn (Zea mays); [13]): 0
Plant response rating, Corn (corn (Zea mays); [14]): 0
Plant response rating, Crabgrass, Large [1, 11]: 90
Plant response rating, Crabgrass, Large [1, 12]: 90
Plant response rating, Crabgrass, Large [1, 13]: 70
Plant response rating, Crabgrass, Large [1, 14]: 90
Plant response rating, Foxtail, Giant [2, 11]: 60
Plant response rating, Foxtail, Giant [2, 12]: 80
Plant response rating, Foxtail, Giant [2, 13]: 30
Plant response rating, Foxtail, Giant [2, 14]: 50
Plant response rating, Wheat [3, 11]: 0
Plant response rating, Wheat [3, 12]: 0
Plant response rating, Wheat [3, 13]: 0
Plant response rating, Wheat [3, 14]: 0
Plant response rating, Velvetleaf [4, 11]: 100
Plant response rating, Velvetleaf [4, 12]: 100
Plant response rating, Velvetleaf [4, 13]: 80
Plant response rating, Velvetleaf [4, 14]: 100
Plant response rating, Pigweed [5, 11]: 90
Plant response rating, Pigweed [5, 12]: 100
Plant response rating, Pigweed [5, 13]: 70
Plant response rating, Pigweed [5, 14]: 80
Plant response rating, Barnyardgrass [6, 11]: 80
Plant response rating, Barnyardgrass [6, 12]: 90
Plant response rating, Barnyardgrass [6, 13]: 20
Plant response rating, Barnyardgrass [6, 14]: 70
Plant response rating, Morningglory [7, 11]: 60
Plant response rating, Morningglory [7, 12]: 70
Plant response rating, Morningglory [7, 13]: 80
Plant response rating, Morningglory [7, 14]: 80
Plant response rating, Flood, Ducksalad [8]: 30
Plant response rating, Ducksalad [8, 15]: 30
Plant response rating, Ducksalad [8, 16]: 30
Ducksalad plant response rating [8, 17]: 20
Plant response rating, Flood, Sedge, Umbrella [9]: 65
Plant response rating, Sedge, Umbrella [9, 15]: 20
Plant response rating, Sedge, Umbrella [9, 16]: 30
Sedge, Umbrella plant response rating [9, 17]: 0
Plant response rating, Flood, Rice (rice (Oryza sativa)): 20
Plant response rating, Rice (rice (Oryza sativa); [15]): 0
Plant response rating, Rice (rice (Oryza sativa); [16]): 0
Rice plant response rating (rice (Oryza sativa); [17]): 0
Plant response rating, Flood, Barnyardgrass [10]: 40
Plant response rating, Barnyardgrass [10, 15]: 40
Plant response rating, Barnyardgrass [10, 16]: 40
Barnyardgrass plant response rating [10, 17]: 20

CCCn1c(-c2ccc(OC)cc2)ncc(C(=O)C2=C(O)CCCC2=O)c1=O [Compound 112]
Plant response rating, Corn (corn (Zea mays); [11]): 0
Plant response rating, Corn (corn (Zea mays); [12]): 20
Plant response rating, Corn (corn (Zea mays); [13]): 0
Plant response rating, Corn (corn (Zea mays); [14]): 0
Plant response rating, Crabgrass, Large [1, 11]: 80
Plant response rating, Crabgrass, Large [1, 12]: 90
Plant response rating, Crabgrass, Large [1, 13]: 60
Plant response rating, Crabgrass, Large [1, 14]: 100
Plant response rating, Foxtail, Giant [2, 11]: 70
Plant response rating, Foxtail, Giant [2, 12]: 80
Plant response rating, Foxtail, Giant [2, 13]: 20
Plant response rating, Foxtail, Giant [2, 14]: 60
Plant response rating, Wheat [3, 11]: 0
Plant response rating, Wheat [3, 12]: 10
Plant response rating, Wheat [3, 13]: 0
Plant response rating, Wheat [3, 14]: 0
Plant response rating, Velvetleaf [4, 11]: 100
Plant response rating, Velvetleaf [4, 12]: 100
Plant response rating, Velvetleaf [4, 13]: 40
Plant response rating, Velvetleaf [4, 14]: 70
Plant response rating, Pigweed [5, 11]: 90
Plant response rating, Pigweed [5, 12]: 100
Plant response rating, Pigweed [5, 13]: 20
Plant response rating, Pigweed [5, 14]: 100
Plant response rating, Barnyardgrass [6, 11]: 60
Plant response rating, Barnyardgrass [6, 12]: 90
Plant response rating, Barnyardgrass [6, 13]: 0
Plant response rating, Barnyardgrass [6, 14]: 80
Plant response rating, Morningglory [7, 11]: 90
Plant response rating, Morningglory [7, 12]: 100
Plant response rating, Morningglory [7, 13]: 0
Plant response rating, Morningglory [7, 14]: 80
Plant response rating, Flood, Ducksalad [8]: 95
Plant response rating, Ducksalad [8, 15]: 85
Plant response rating, Flood, Sedge, Umbrella [9]: 90
Plant response rating, Sedge, Umbrella [9, 15]: 85
Plant response rating, Flood, Rice (rice (Oryza sativa)): 15
Plant response rating, Rice (rice (Oryza sativa); [15]): 0
Plant response rating, Flood, Barnyardgrass [10]: 40
Plant response rating, Barnyardgrass [10, 15]: 35
